Test: xn = mol fraction of the nth substance listed
Conditions: Liquid, absorption in thin film, x2 = 0

CCCCCCCn1cc[n+](C)c1.N#C[C-](C#N)C#N [1-heptyl-3-methylimidazolium tricyanomethanide] + O=C=O
Conditions	binary diffusion coefficient [m2/s]
298.15 K, 93 kPa	2e-10
298.15 K, 193 kPa	1.6e-10
298.15 K, 293 kPa	1.7e-10
298.15 K, 393 kPa	1.9e-10
298.15 K, 492 kPa	2e-10
298.15 K, 692 kPa	2.3e-10
298.15 K, 792 kPa	2.4e-10
298.15 K, 893 kPa	2.5e-10
298.15 K, 993 kPa	2.7e-10
298.15 K, 1193 kPa	3.1e-10
298.15 K, 1293 kPa	2.9e-10
298.15 K, 1392 kPa	2.9e-10
298.15 K, 1493 kPa	3.1e-10
298.15 K, 1693 kPa	2.8e-10
298.15 K, 1792 kPa	3.1e-10
298.15 K, 1893 kPa	3.6e-10
298.15 K, 1993 kPa	3.5e-10
308.15 K, 94 kPa	2.6e-10
308.15 K, 194 kPa	2.3e-10
308.15 K, 294 kPa	2.4e-10
308.15 K, 394 kPa	2.8e-10
308.15 K, 493 kPa	2.8e-10
308.15 K, 593 kPa	2.9e-10
308.15 K, 693 kPa	2.7e-10
308.15 K, 993 kPa	3e-10
308.15 K, 1093 kPa	3.2e-10
308.15 K, 1192 kPa	3.4e-10
308.15 K, 1293 kPa	3.3e-10
308.15 K, 1392 kPa	3.5e-10
308.15 K, 1493 kPa	3.6e-10
308.15 K, 1893 kPa	3.9e-10
308.15 K, 1993 kPa	4.2e-10
323.15 K, 95 kPa	3.2e-10
323.15 K, 195 kPa	4e-10
323.15 K, 294 kPa	3.8e-10
323.15 K, 394 kPa	3.5e-10
323.15 K, 494 kPa	3.8e-10
323.15 K, 594 kPa	3.9e-10
323.15 K, 692 kPa	3.2e-10
323.15 K, 793 kPa	4e-10
323.15 K, 893 kPa	3.5e-10
323.15 K, 993 kPa	4.4e-10
323.15 K, 1093 kPa	4.2e-10
323.15 K, 1192 kPa	4.4e-10
323.15 K, 1293 kPa	3.2e-10
338.25 K, 95 kPa	4.5e-10
338.25 K, 196 kPa	4.4e-10
338.25 K, 295 kPa	4.3e-10
338.25 K, 394 kPa	5.3e-10
338.25 K, 493 kPa	4.7e-10
338.25 K, 594 kPa	5.2e-10
338.25 K, 793 kPa	6.1e-10
338.25 K, 993 kPa	5.8e-10
338.25 K, 1093 kPa	5.6e-10
338.25 K, 1292 kPa	6.5e-10
338.25 K, 1392 kPa	5.6e-10
338.25 K, 1793 kPa	5.8e-10
338.25 K, 1893 kPa	5.6e-10
338.25 K, 1993 kPa	6.5e-10
353.25 K, 494 kPa	6.4e-10
353.25 K, 594 kPa	6.5e-10
353.25 K, 693 kPa	5.4e-10
353.25 K, 793 kPa	6e-10
353.25 K, 894 kPa	6.6e-10
353.25 K, 994 kPa	7.5e-10
353.25 K, 1094 kPa	5.7e-10
353.25 K, 1193 kPa	7.1e-10

CCCCCCCCn1cc[n+](C)c1.N#CC(=C=[N-])C#N [1-methyl-3-octylimidazolium tricyanomethanide] + O=C=O
Conditions	binary diffusion coefficient [m2/s]
298.15 K, 94 kPa	1.5e-10
298.15 K, 194 kPa	1.9e-10
298.15 K, 293 kPa	1.8e-10
298.15 K, 393 kPa	2e-10
298.15 K, 593 kPa	2e-10
308.15 K, 194 kPa	2.3e-10
308.15 K, 294 kPa	2.4e-10
308.15 K, 393 kPa	2.5e-10
308.15 K, 493 kPa	2.5e-10
308.15 K, 593 kPa	2.5e-10
308.15 K, 693 kPa	2.7e-10
308.15 K, 793 kPa	2.7e-10
308.15 K, 893 kPa	3e-10
308.15 K, 992 kPa	3.1e-10
308.15 K, 1093 kPa	2.7e-10
308.15 K, 1193 kPa	2.5e-10
308.15 K, 1293 kPa	3.2e-10
308.15 K, 1392 kPa	3.3e-10
308.15 K, 1492 kPa	3.5e-10
308.15 K, 1593 kPa	3.4e-10
308.15 K, 1693 kPa	3.8e-10
308.15 K, 1793 kPa	4e-10
308.15 K, 1892 kPa	3.9e-10
308.15 K, 1993 kPa	3.9e-10
323.15 K, 94 kPa	3.2e-10
323.15 K, 194 kPa	3.4e-10
323.15 K, 293 kPa	3.5e-10
323.15 K, 393 kPa	3.3e-10
323.15 K, 493 kPa	3.3e-10
323.15 K, 593 kPa	3.6e-10
323.15 K, 693 kPa	3.9e-10
323.15 K, 793 kPa	4e-10
323.15 K, 893 kPa	3.9e-10
323.15 K, 992 kPa	3.9e-10
323.15 K, 1093 kPa	3.8e-10
323.15 K, 1193 kPa	3.6e-10
323.15 K, 1292 kPa	3.9e-10
323.15 K, 1393 kPa	4e-10
323.15 K, 1493 kPa	4.2e-10
323.15 K, 1593 kPa	4.1e-10
323.15 K, 1692 kPa	4.6e-10
323.15 K, 1793 kPa	3.9e-10
323.15 K, 1892 kPa	4.5e-10
323.15 K, 1993 kPa	4.4e-10
338.25 K, 94 kPa	4.3e-10
338.25 K, 194 kPa	4.1e-10
338.25 K, 294 kPa	4.5e-10
338.25 K, 394 kPa	4.4e-10
338.25 K, 494 kPa	4.2e-10
338.25 K, 593 kPa	4.8e-10
338.25 K, 692 kPa	4.3e-10
338.25 K, 794 kPa	4.7e-10
338.25 K, 892 kPa	4.2e-10
338.25 K, 993 kPa	3.8e-10
338.25 K, 1093 kPa	5e-10
338.25 K, 1193 kPa	5.1e-10
338.25 K, 1292 kPa	5e-10
338.25 K, 1392 kPa	4.9e-10
338.25 K, 1493 kPa	5e-10
338.25 K, 1692 kPa	6e-10
338.25 K, 1793 kPa	5.9e-10
338.25 K, 1892 kPa	5.5e-10
338.25 K, 1993 kPa	5.2e-10
353.25 K, 494 kPa	5.7e-10
353.25 K, 594 kPa	5.5e-10
353.25 K, 993 kPa	6e-10
353.25 K, 1093 kPa	6.7e-10
353.25 K, 1193 kPa	5.1e-10
353.25 K, 1293 kPa	4.7e-10
353.25 K, 1392 kPa	6.5e-10
353.25 K, 1493 kPa	5.6e-10
353.25 K, 1793 kPa	7.6e-10
353.25 K, 1893 kPa	5.8e-10

From the NIST ThermoML archive (doi:10.1021/acs.jced.6b00657)
